The target in this assay is T1, human GC-A (Homo sapiens, UniProt P16066).
T1 construct: expressed in transfected cells; host or cells: CHO cells
T1 sequence (P16066 33-1061): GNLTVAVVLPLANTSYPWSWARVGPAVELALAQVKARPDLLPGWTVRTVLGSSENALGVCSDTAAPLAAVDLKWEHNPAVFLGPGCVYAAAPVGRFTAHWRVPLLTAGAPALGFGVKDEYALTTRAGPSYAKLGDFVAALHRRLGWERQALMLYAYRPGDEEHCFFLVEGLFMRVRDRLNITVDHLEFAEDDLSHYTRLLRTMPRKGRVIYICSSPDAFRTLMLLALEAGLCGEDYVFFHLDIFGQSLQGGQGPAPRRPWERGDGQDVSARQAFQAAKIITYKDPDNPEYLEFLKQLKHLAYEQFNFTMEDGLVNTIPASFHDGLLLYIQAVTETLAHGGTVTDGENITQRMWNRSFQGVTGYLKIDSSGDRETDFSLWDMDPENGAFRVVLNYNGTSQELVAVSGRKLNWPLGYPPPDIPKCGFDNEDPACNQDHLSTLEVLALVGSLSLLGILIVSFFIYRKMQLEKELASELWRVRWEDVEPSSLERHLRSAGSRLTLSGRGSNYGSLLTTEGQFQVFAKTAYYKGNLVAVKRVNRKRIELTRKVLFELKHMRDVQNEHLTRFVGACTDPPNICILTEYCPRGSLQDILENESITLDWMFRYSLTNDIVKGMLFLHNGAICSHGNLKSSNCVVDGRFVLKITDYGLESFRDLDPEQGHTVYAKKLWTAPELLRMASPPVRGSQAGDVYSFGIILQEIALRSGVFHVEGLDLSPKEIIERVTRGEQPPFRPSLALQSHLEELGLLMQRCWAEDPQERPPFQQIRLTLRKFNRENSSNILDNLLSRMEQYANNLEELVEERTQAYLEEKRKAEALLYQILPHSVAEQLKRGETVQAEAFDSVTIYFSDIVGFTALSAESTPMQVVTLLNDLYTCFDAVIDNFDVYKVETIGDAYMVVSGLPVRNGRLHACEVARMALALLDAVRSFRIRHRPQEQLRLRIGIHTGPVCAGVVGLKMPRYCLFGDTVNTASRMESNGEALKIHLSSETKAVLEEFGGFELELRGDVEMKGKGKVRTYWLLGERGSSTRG
As to the kind of experiment: cGMP elevating activity in CHO/human GC-A cells (Test Example 1). It is filed as cell-based. Here is the method:
The cGMP elevating activity of each modified peptide prepared in Example 2 was measured by the following method:
CHO/human GC-A cells, which are CHO cells constitutively expressing human GC-A, were suspended at 2×10^5 cells/ml in α-MEM, 10% FBS, and 1% penicillin-streptomycin, inoculated at 20 μl/well (4×10^3 cells/well) onto a 384-well plate (Corning, 3826), and cultured overnight in a CO2 incubator. On the next day, the medium was removed from this plate, and then, 1.6 mM IBMX/KRB buffer was added thereto at 10 μl/well. The mixture was stirred on a plate shaker and then incubated at room temperature for 10 minutes. […] The mixture was stirred on a plate shaker and then incubated for 15 minutes in a CO2 incubator. Thereafter, a lysis buffer (50 mM phosphate buffer, pH 7.0, and 1% Triton X-100) was added thereto at 5 μl/well. The cells were lysed by stirring for 10 minutes on a plate shaker. Subsequently, the cGMP levels in the cell lysates were measured by use of a cGMP kit (manufactured by Cisbio Bioassays). Specifically, to a 384-well plate (Greiner, 784076), 5 μl/well of a diluent attached to the kit, 5 μl/well of the cell lysate, 5 μl/well of cGMP-d2, and 5 μl/well of anti cGMP-Cryptate were added. The mixture was stirred on a plate shaker and then incubated overnight at 4° C. in the dark, followed by the measurement of homogeneous time-resolved fluorescence using RubyStar (manufactured by BMG LABTECH JAPAN Ltd.). The activity value (T/C) of the test substance at each concentration was calculated when the activity value of a well supplemented with only a solvent was defined as 0 and the activity value of a well supplemented with 1 nM ANP was defined as 1.

Molecules are shown by their SMILES.

This is an account of results in patent publication US10947289B2, “Glyco-modified atrial natriuretic peptide” (priority 2013, dated 2021).

With `CC[C@H](C)[C@@H]1NC(=O)[C@H](CCCNC(=N)N)NC(=O)[C@H](CC(=O)O)NC(=O)[C@H](CCSC)NC(=O)[C@H](CCCNC(=N)N)NC(=O)CNC(=O)CNC(=O)[C@H](Cc2ccccc2)NC(=O)[C@@H](NC(=O)[C@H](CO)NC(=O)[C@H](CO)NC(=O)[C@H](CCCNC(=N)N)NC(=O)[C@H](CCCNC(=N)N)NC(=O)[C@H](CC(C)C)NC(=O)[C@H](CO)NC(=O)CCOCCOCCOCCOCCNC(=O)CCSC2CC(=O)N(CCC(=O)N[C@@H](CCC(=O)NCCO[C@@H]3O[C@H](CO)[C@@H](O[C@@H]4O[C@H](CO)[C@@H](O[C@@H]5O[C@H](CO[C@H]6O[C@H](CO)[C@@H](O)[C@H](O)[C@@H]6O[C@@H]6O[C@H](CO)[C@@H](O[C@@H]7O[C@H](CO[C@]8(C(=O)O)C[C@H](O)[C@@H](NC(C)=O)[C@H]([C@H](O)[C@H](O)CO)O8)[C@H](O)[C@H](O)[C@H]7O)[C@H](O)[C@H]6NC(C)=O)[C@@H](O)[C@H](O[C@H]6O[C@H](CO)[C@@H](O)[C@H](O)[C@@H]6O[C@@H]6O[C@H](CO)[C@@H](O[C@@H]7O[C@H](CO[C@]8(C(=O)O)C[C@H](O)[C@@H](NC(C)=O)[C@H]([C@H](O)[C@H](O)CO)O8)[C@H](O)[C@H](O)[C@H]7O)[C@H](O)[C@H]6NC(C)=O)[C@@H]5O)[C@H](O)[C@H]4NC(C)=O)[C@H](O)[C@H]3NC(C)=O)C(=O)NCCO[C@@H]3O[C@H](CO)[C@@H](O[C@@H]4O[C@H](CO)[C@@H](O[C@@H]5O[C@H](CO[C@H]6O[C@H](CO)[C@@H](O)[C@H](O)[C@@H]6O[C@@H]6O[C@H](CO)[C@@H](O[C@@H]7O[C@H](CO[C@]8(C(=O)O)C[C@H](O)[C@@H](NC(C)=O)[C@H]([C@H](O)[C@H](O)CO)O8)[C@H](O)[C@H](O)[C@H]7O)[C@H](O)[C@H]6NC(C)=O)[C@@H](O)[C@H](O[C@H]6O[C@H](CO)[C@@H](O)[C@H](O)[C@@H]6O[C@@H]6O[C@H](CO)[C@@H](O[C@@H]7O[C@H](CO[C@]8(C(=O)O)C[C@H](O)[C@@H](NC(C)=O)[C@H]([C@H](O)[C@H](O)CO)O8)[C@H](O)[C@H](O)[C@H]7O)[C@H](O)[C@H]6NC(C)=O)[C@@H]5O)[C@H](O)[C@H]4NC(C)=O)[C@H](O)[C@H]3NC(C)=O)C2=O)CSSC[C@@H](C(=O)N[C@@H](CC(N)=O)C(=O)N[C@@H](CO)C(=O)N[C@@H](Cc2ccccc2)C(=O)N[C@@H](CCCNC(=N)N)C(=O)N[C@@H](Cc2ccc(O)cc2)C(=O)O)NC(=O)CNC(=O)[C@H](CC(C)C)NC(=O)CNC(=O)[C@H](CO)NC(=O)[C@H](CCC(N)=O)NC(=O)[C@H](C)NC(=O)CNC1=O` (some centres unmarked) [Compound 2-31, SG-(SG-)Gln*-Mal-PEG(3)-hANP(1-28)], the EC50 amounted to 0.31 nM.
In turn, `CC[C@H](C)[C@@H]1NC(=O)[C@H](CCCNC(=N)N)NC(=O)[C@H](CC(=O)O)NC(=O)[C@H](CCSC)NC(=O)[C@H](CCCNC(=N)N)NC(=O)CNC(=O)CNC(=O)[C@H](Cc2ccccc2)NC(=O)[C@@H](NC(=O)[C@H](CO)NC(=O)[C@H](CO)NC(=O)[C@H](CCCNC(=N)N)NC(=O)[C@H](CCCNC(=N)N)NC(=O)[C@H](CC(C)C)NC(=O)[C@H](CO)NC(=O)CCSC2CC(=O)N(CCC(=O)NCCOCCOCCOCCOCCC(=O)N[C@@H](CCC(=O)NCCO[C@@H]3O[C@H](CO)[C@@H](O[C@@H]4O[C@H](CO)[C@@H](O[C@@H]5O[C@H](CO[C@H]6O[C@H](CO)[C@@H](O)[C@H](O)[C@@H]6O[C@@H]6O[C@H](CO)[C@@H](O[C@@H]7O[C@H](CO[C@]8(C(=O)O)C[C@H](O)[C@@H](NC(C)=O)[C@H]([C@H](O)[C@H](O)CO)O8)[C@H](O)[C@H](O)[C@H]7O)[C@H](O)[C@H]6NC(C)=O)[C@@H](O)[C@H](O[C@H]6O[C@H](CO)[C@@H](O)[C@H](O)[C@@H]6O[C@@H]6O[C@H](CO)[C@@H](O[C@@H]7O[C@H](CO[C@]8(C(=O)O)C[C@H](O)[C@@H](NC(C)=O)[C@H]([C@H](O)[C@H](O)CO)O8)[C@H](O)[C@H](O)[C@H]7O)[C@H](O)[C@H]6NC(C)=O)[C@@H]5O)[C@H](O)[C@H]4NC(C)=O)[C@H](O)[C@H]3NC(C)=O)C(=O)NCCO[C@@H]3O[C@H](CO)[C@@H](O[C@@H]4O[C@H](CO)[C@@H](O[C@@H]5O[C@H](CO[C@H]6O[C@H](CO)[C@@H](O)[C@H](O)[C@@H]6O[C@@H]6O[C@H](CO)[C@@H](O[C@@H]7O[C@H](CO[C@]8(C(=O)O)C[C@H](O)[C@@H](NC(C)=O)[C@H]([C@H](O)[C@H](O)CO)O8)[C@H](O)[C@H](O)[C@H]7O)[C@H](O)[C@H]6NC(C)=O)[C@@H](O)[C@H](O[C@H]6O[C@H](CO)[C@@H](O)[C@H](O)[C@@H]6O[C@@H]6O[C@H](CO)[C@@H](O[C@@H]7O[C@H](CO[C@]8(C(=O)O)C[C@H](O)[C@@H](NC(C)=O)[C@H]([C@H](O)[C@H](O)CO)O8)[C@H](O)[C@H](O)[C@H]7O)[C@H](O)[C@H]6NC(C)=O)[C@@H]5O)[C@H](O)[C@H]4NC(C)=O)[C@H](O)[C@H]3NC(C)=O)C2=O)CSSC[C@@H](C(=O)N[C@@H](CC(N)=O)C(=O)N[C@@H](CO)C(=O)N[C@@H](Cc2ccccc2)C(=O)N[C@@H](CCCNC(=N)N)C(=O)N[C@@H](Cc2ccc(O)cc2)C(=O)O)NC(=O)CNC(=O)[C@H](CC(C)C)NC(=O)CNC(=O)[C@H](CO)NC(=O)[C@H](CCC(N)=O)NC(=O)[C@H](C)NC(=O)CNC1=O` (some centres unmarked) [Compound 2-32, SG-(SG-)Gln*-PEG(3)-Mal-hANP(1-28)] registered an EC50 of 0.41 nM.

In general, EC50 refers to the midpoint of the concentration-response curve. The low end stands for a more potent agent, the high end for a less potent agent.
